Assays:
iPS cell line (1231A3) [1] = assay: Ratio of Corin-positive cells after induction of differentiation into neural cells of the midbrain floor plate region (cell sorter); type: cell-based, human; conditions: cell group A1: pretreatment with SAG 300 nM from Day -1 to Day 0; culture day 12 for the induction of differentiation
Procedure: (§1) An iPS cell line (formal name: 1231A3) as a line for research was used and cultured in a medium having composition given below. The medium was supplemented (with pretreatment) with SAG (N-Methyl-N′-(3-pyridinylbenzyl)-N′-(3-chlorobenzo[b]thiophene-2-carbonyl)-1,4-diaminocyclohexane, final concentration: 300 nM) for 1 day from 1 day before the start of differentiation culture (Day −1) to the start day of differentiation (Day 0) to establish a cell group having high induction efficiency (cell group A1). An untreated cell group (cell group A2) was also established for comparison by cell culture under the same conditions as in the cell group A1 except that the medium was not supplemented with SAG.
As for the medium in the culture experiment A, AK03N basal medium manufactured by Ajinomoto Co., Inc. was used before the start of differentiation, and GMEM containing 8% KSR was used as a basal medium at and after the start of differentiation (Day 0).
(§2) The pluripotent stem cells in each of six types of cell groups provided in the culture experiments A, B, and C were induced to differentiate into neural cells of the midbrain floor plate region in accordance with a predetermined protocol. […] The ratio of Corin-positive cells in each cell group was measured using a cell sorter (BD FACSJazz, BD Accuri or Furukawa PERFLOW Sort) on 12 days from the start of differentiation. […]

iPS cell line (1231A3) [2] = assay: Concentration analysis of NT-3 in culture supernatant (Bioplex); type: cell-based, human; conditions: cell group A1 (SAG 300 nM pretreatment)
Procedure: as §1, §2

CNC1CCC(N(Cc2cccc(-c3ccncc3)c2)C(=O)c2sc3ccccc3c2Cl)CC1 (stereo not drawn) [SAG, N-Methyl-N′-(3-pyridinylbenzyl)-N′-(3-chlorobenzo[b]thiophene-2-carbonyl)-1,4-diaminocyclohexane]
ratio of Corin-positive cells (iPS cell line (1231A3) [1]): 90%
NT-3 in culture supernatant (iPS cell line (1231A3) [2]; sample collected 3 days after the start of differentiation): specifically increased
NT-3 in culture supernatant (iPS cell line (1231A3) [2]; samples collected 1 day and 5 days after the start of differentiation): not detected

Reference: patent US20250145948A1, “METHOD FOR ASSESSING DIFFERENTIATION POTENTIAL OF CELLS IN CULTURE BROTH IN DIFFERENTIATION OF PLURIPOTENT STEM CELLS INTO NEURAL CELLS OF MIDBRAIN FLOOR PLATE REGION” (SUMITOMO PHARMA CO., LTD., priority 2022, published 2025)
